Drawing on PubChem BioAssay (NCI), this text covers GI50 and TGI for ten compounds.

Test systems include SK-MEL-5 melanoma; BT-549 breast; SK-MEL-28 melanoma; PC-3 prostate; HL-60(TB) leukemia; MDA-MB-231 breast; SW-620 colon; SF-295 CNS.
Common to all, as to test: NCI tumour cell line growth inhibition, 48 h

Each structure is given as a SMILES string.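 Briefly, cells in 96-well plates were exposed to five compound concentrations for 48 h, and endpoints were estimated by linear interpolation. At the GI50, growth is halved. TGI is the concentration that stops growth completely.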 Some results are limits rather than exact numbers.

On to `O=C1/C(=C\c2ccc(F)cc2)CN(C(=O)c2ccccc2)C/C1=C\c1ccc(F)cc1`, for which the GI50 was 1660 nM with SK-MEL-5 melanoma; 1810 nM in the assay on BT-549 breast; 2.24 µM with SK-MEL-28 melanoma; 2080 nM in the assay with PC-3 prostate; 3560 nM in the assay on HL-60(TB) leukemia; 2270 nM in the assay on MDA-MB-231 breast. Moreover, the TGI was 3.8 µM with SK-MEL-5 melanoma; 3.43 µM with BT-549 breast; 5.88 µM in the assay on SK-MEL-28 melanoma; 6.59 µM in the assay on PC-3 prostate; greater than 100 µM in the assay on HL-60(TB) leukemia; 6.39 µM in the assay with MDA-MB-231 breast.
On to `Cc1cc(Nc2ccc(OCc3ccccc3)cc2)nc2cc(O)ccc12`, for which the GI50 in the assay with SK-MEL-5 melanoma was 1680 nM; with BT-549 breast, 5460 nM; in the assay on SK-MEL-28 melanoma it was 2.95 µM; in the assay on PC-3 prostate, 3460 nM; in the assay with HL-60(TB) leukemia, 3380 nM; in the assay with SW-620 colon, 5120 nM. The GI50 is 2230 nM in the assay on SF-295 CNS and 2520 nM in the assay on MDA-MB-231 breast. Besides, the TGI in the assay on SK-MEL-5 melanoma amounted to 3.2 µM; in the assay with BT-549 breast, 21 µM; with SK-MEL-28 melanoma it was 8.19 µM; in the assay with PC-3 prostate it was 18 µM; in the assay on HL-60(TB) leukemia it was 14.7 µM; with SW-620 colon, 19.4 µM. In addition, the results for the TGI with SF-295 CNS and in the assay with MDA-MB-231 breast were 5.36 µM and 8.78 µM, respectively.
Consider `CCCCCCCC/C=C/CCCCCCCC1=NC(C)(C)CN1CC(C)O` (centres undefined), for which the GI50 was 6390 nM in the assay with SK-MEL-5 melanoma; 2840 nM in the assay on BT-549 breast; 1.74 µM in the assay on SK-MEL-28 melanoma; 2260 nM in the assay with PC-3 prostate; 1880 nM in the assay on HL-60(TB) leukemia; 1800 nM in the assay on SW-620 colon. The GI50 with SF-295 CNS was 1820 nM; in the assay with MDA-MB-231 breast it was 1660 nM. Besides, the TGI stood at 16.9 µM in the assay with SK-MEL-5 melanoma; 15.7 µM in the assay with BT-549 breast; 3.19 µM in the assay on SK-MEL-28 melanoma; 8.08 µM in the assay with PC-3 prostate; 4.44 µM with HL-60(TB) leukemia; 3.34 µM in the assay on SW-620 colon. The figures for the TGI in the assay on SF-295 CNS and in the assay on MDA-MB-231 breast were 3.5 µM and 3.43 µM, respectively.
With `O=C(/C=C/c1ccco1)c1cc(F)c(Cl)cc1Cl`, the GI50 in the assay on SK-MEL-5 melanoma is 17000 nM; with SK-MEL-28 melanoma, 22.7 µM; in the assay on PC-3 prostate, 24800 nM; in the assay with HL-60(TB) leukemia, 30800 nM; in the assay on SW-620 colon it was 13100 nM; with SF-295 CNS, 24300 nM. In addition, in the assay with MDA-MB-231 breast, the GI50 was 21900 nM. Further, the TGI in the assay on SK-MEL-5 melanoma was 32.5 µM; in the assay with SK-MEL-28 melanoma, 50.2 µM; in the assay on PC-3 prostate, 80.1 µM; in the assay with HL-60(TB) leukemia it was greater than 100 µM; in the assay on SW-620 colon it was 36.3 µM; in the assay on SF-295 CNS, 65.9 µM. The same compound registered a TGI in the assay on MDA-MB-231 breast of 58 µM.
In the case of `C[C@]12CCc3nc(Nc4cccc(O)c4)sc3C1=CC[C@@H]1[C@@H]2CC[C@]2(C)/C(=N\NC(N)=S)CC[C@@H]12`, the GI50 was 1800 nM in the assay with SK-MEL-5 melanoma; 1150 nM in the assay with BT-549 breast; 1700 nM with PC-3 prostate; 2530 nM with HL-60(TB) leukemia; 1910 nM with SW-620 colon; 1200 nM in the assay on SF-295 CNS. Also, in the assay with MDA-MB-231 breast, the GI50 is 1750 nM. For the same compound, the TGI with SK-MEL-5 melanoma was determined as 3.63 µM; with BT-549 breast, 3.97 µM; in the assay with PC-3 prostate it was 6.35 µM; with HL-60(TB) leukemia, 8.31 µM; in the assay on SW-620 colon it was 3.8 µM; in the assay on SF-295 CNS, 3.11 µM. The compound also showed a TGI in the assay with MDA-MB-231 breast of 4.95 µM.
In the case of `CC[C@H](NC(=O)[C@H]1CCCCN1C)C(=O)N(C)[C@H](C[C@@H](OC(C)=O)c1nc(C(=O)N[C@@H](Cc2ccccc2)C[C@H](C)C(=O)O)cs1)C(C)C`, the GI50 with SK-MEL-5 melanoma was less than 1.43 nM; in the assay with BT-549 breast it was 6.31 nM; in the assay with PC-3 prostate, 4.72 nM; with HL-60(TB) leukemia, 4.33 nM; in the assay on SW-620 colon, 3.98 nM; in the assay on SF-295 CNS it was 4.56 nM. Also, in the assay on MDA-MB-231 breast, the GI50 is 8 nM. The TGI with SK-MEL-5 melanoma is 0.101 µM; with BT-549 breast, 0.473 µM; in the assay on PC-3 prostate, greater than 14.3 µM; with HL-60(TB) leukemia it was 0.019 µM; with SW-620 colon it was greater than 14.3 µM; in the assay with SF-295 CNS it was greater than 6.44 µM. In the assay on MDA-MB-231 breast, the TGI was greater than 14.3 µM.
Take `CC[C@H]1CN2CCc3cc(OC)c(OC)cc3C2C[C@@H]1CC1NCCc2cc(OC)c(OC)cc21` (some centres undefined): the TGI was 0.0928 µM in the assay with SK-MEL-5 melanoma; 0.375 µM with BT-549 breast; 0.119 µM in the assay on SK-MEL-28 melanoma; 0.275 µM in the assay with PC-3 prostate; 0.144 µM with HL-60(TB) leukemia; 0.238 µM with SW-620 colon. Besides, the TGI with MDA-MB-231 breast amounted to 0.0994 µM. In the assay on HL-60(TB) leukemia, the GI50 is 20.4 nM.
Take `Cc1ccc(Cl)cc1Nc1nc(C(F)(F)F)ccc1C(=O)N/N=C/c1cccnc1`: the GI50 was 2500 nM in the assay on SK-MEL-5 melanoma; 4.24 µM in the assay on SK-MEL-28 melanoma; 1990 nM in the assay with PC-3 prostate; 1500 nM in the assay on HL-60(TB) leukemia; 3320 nM in the assay on SW-620 colon; 1380 nM in the assay on SF-295 CNS. Further, the GI50 in the assay on MDA-MB-231 breast is 2080 nM. Also, the TGI in the assay with SK-MEL-5 melanoma was 10.3 µM; in the assay with SK-MEL-28 melanoma it was 15.8 µM; in the assay with PC-3 prostate it was 18.7 µM; with HL-60(TB) leukemia, greater than 46 µM; in the assay with SW-620 colon, 14.9 µM; with SF-295 CNS, 4.51 µM. In the assay with MDA-MB-231 breast, this compound gave a TGI of 17.4 µM.
For `COC1=CC(c2ccc[nH]2)=N/C1=C\c1[nH]c(C)c(CC(=O)OCc2ccccc2)c1CCC(=O)OCc1ccccc1`, the GI50 is 370 nM in the assay on BT-549 breast; 346 nM in the assay with PC-3 prostate; 490 nM in the assay on HL-60(TB) leukemia; 345 nM with SW-620 colon; 305 nM with SF-295 CNS; 224 nM in the assay with MDA-MB-231 breast. In addition, the TGI with BT-549 breast amounted to 2.68 µM; in the assay on PC-3 prostate, 12.6 µM; with HL-60(TB) leukemia, 2.66 µM; with SW-620 colon, 2.43 µM; in the assay on SF-295 CNS, 1.3 µM; with MDA-MB-231 breast, 1.67 µM.
With `Cc1cc(=O)[nH]c(N/N=C/c2cc(Br)ccc2O)n1`, the GI50 in the assay on BT-549 breast was 11000 nM; with SK-MEL-28 melanoma, 4.55 µM; in the assay on PC-3 prostate it was 698 nM; in the assay with HL-60(TB) leukemia it was 446 nM; with SW-620 colon, 488 nM; in the assay with SF-295 CNS, 193 nM. In addition, the GI50 in the assay on MDA-MB-231 breast was 976 nM. The TGI is greater than 100 µM in the assay with BT-549 breast; greater than 100 µM with SK-MEL-28 melanoma; greater than 100 µM in the assay with PC-3 prostate; 5.68 µM in the assay on HL-60(TB) leukemia; greater than 100 µM with SW-620 colon; 0.568 µM in the assay with SF-295 CNS. The compound further showed a TGI in the assay with MDA-MB-231 breast greater than 100 µM.
